Test results: patent publication US20230109839A1, “THERAPEUTIC AGENT FOR TAUOPATHIES” (SUMITOMO PHARMA CO., LTD., priority 2020, published 2023)

These molecules were tested against T1, human Nav1.1 (Homo sapiens, UniProt P35498) (assay: Amplification of Nav1.1-derived voltage-gated sodium current (Nav1.1 current), automated patch clamp (Test 1)). Settings: Concentration for evaluation 1 μM; HEK293 cell line stably expressing human Nav1.1.
T1 construct: host or cells: HEK293
Type: cell-based
How it was run: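 HEK293 cells stably expressing human Nav1.1, restricted to cells with >500 pA current, were recorded by automated voltage-clamp patch clamp with a ramp voltage stimulus. Compounds were applied in HEPES-buffered extracellular solution with 1% DMSO. Amplification (%) = 100×(peak or AUC after/before compound)−100.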

Compound	Nav1.1 current amplification rate (%)
CC1CC=C(c2ccc(=O)n(CC(=O)Nc3cncc(-c4cnn(C)c4)c3)n2)CC1 (centres unmarked) [Example 378]	37%
CC1CC=C(c2ccc(=O)n(CC(=O)Nc3ccnc(N4CCOCC4)c3F)n2)CC1 (centres unmarked) [Example 383]	84%
CN(CC1CC(F)(F)C1)c1cnc2cnn(CC(=O)Nc3ccn4ncnc4c3)c2n1 [Example 624]	61%
CC1CC=C(c2ccc(=O)n(CC(=O)Nc3ccc4ncnn4n3)n2)CC1 (centres unmarked) [Example 350]	31%
CC1CC=C(c2ccc(=O)n(CC(=O)Nc3cncc(C4=CCOC4)c3)n2)CC1 (centres unmarked) [Example 381]	153%
CC(=O)N1CC=C(c2nccc3c2CCN3C(=O)Cn2nc(C3=CCC(C)CC3)ccc2=O)C1 (centres unmarked) [Example 310]	87%
CC1CC=C(c2ccc(=O)n(CC(=O)N3CCc4c(CNC5CCOCC5)cccc43)n2)CC1 (centres unmarked) [Example 317]	41%
CC1CC=C(c2ccc(=O)n(CC(=O)N3CCc4cc(OCC(C)(C)O)ccc43)n2)CC1 (centres unmarked) [Example 320]	10%

Continued, values first:

Nav1.1 current amplification rate (%)	Compound
95%	CN(c1cnc2cnn(CC(=O)Nc3cnc4ncccc4c3)c2n1)C1CC1 [Example 723]
35%	CN(c1cnc2cnn(CC(=O)Nc3ccc(Cl)nc3)c2n1)C1CC1 [Example 722]
31%	CN(CCC1CC1)c1ncc2cnn(CC(=O)Nc3ccn4ncnc4c3)c2n1 [Example 790]
30%	CN(c1cnc2cnn(CC(=O)Nc3ccc4ncnn4c3)c2n1)C1CCCC1 [Example 669]
39%	Cc1cc(NC(=O)Cn2ncc3ncc(N(C)C4CCCC4)nc32)cc2nccn12 [Example 684]
50%	CN(c1cnc2cnn(CC(=O)Nc3ccc4nccnc4c3)c2n1)C1CCCC1 [Example 680]
91%	CC1(C)CC=C(c2cnc3cnn(CC(=O)Nc4ccc5ncnn5c4)c3n2)CC1 [Example 649]
13%	CC(C1CCC1)N(C)c1cnc2cnn(CC(=O)Nc3ccn4ncnc4c3)c2n1 (centres unmarked) [Example 634]
28%	CN(c1cnc2cnn(CC(=O)Nc3ccc4ccncc4n3)c2n1)C1CC1 [Example 724]
53%	CN(c1cnc2cnn(CC(=O)Nc3ccc(-n4ccnc4)nc3)c2n1)C1CCCC1 [Example 682]
50%	Cc1ccc(-c2ncc3cnn(CC(=O)Nc4ccn5ncnc5c4)c3n2)cc1 [Example 787]

Same assay, conditions: Concentration for evaluation 3 μM; HEK293 cell line stably expressing human Nav1.1

Nav1.1 current amplification rate (%)	Compound
307%	CC1CC=C(c2ccc(=O)n(CC(=O)N3CCc4c(-c5ccnn5C)cccc43)n2)CC1 (centres unmarked) [Example 251]
231%	CC1CC=C(c2ccc(=O)n(CC(=O)N3CCc4c(C5=CCN(C)C5)cccc43)n2)CC1 (centres unmarked) [Example 267]
187%	CC1CC=C(c2ccc(=O)n(CC(=O)Nc3ccn4c(C5CC5)cnc4c3)n2)CC1 (centres unmarked) [Example 335]
132%	Cc1nc2cc(NC(=O)Cn3nc(C4=CCC(C)CC4)ccc3=O)cnc2s1 (centres unmarked) [Example 326]
100%	Cc1nc2cc(NC(=O)Cn3nc(C4=CCC(C)CC4)ccc3=O)ccn2c1C (centres unmarked) [Example 329]
115%	CC1CC=C(c2ccc(=O)n(CC(=O)Nc3cccc(N4CCOCC4)c3F)n2)CC1 (centres unmarked) [Example 322]
67%	CC1CC=C(c2ccc(=O)n(CC(=O)N3CCc4c(C5CN(CCO)C5)cccc43)n2)CC1 (centres unmarked) [Example 303]
154%	Cc1cc(NC(=O)Cn2nc(C3=CCC(C)CC3)ccc2=O)cc2ncoc12 (centres unmarked) [Example 323]

Same assay, conditions: Concentration for evaluation 10 μM; HEK293 cell line stably expressing human Nav1.1

Nav1.1 current amplification rate (%)	Compound
20%	N#Cc1ccc(NC(=O)Cn2nc(N3CCC4(CCCO4)CC3)ccc2=O)cc1 [Example 29]
17%	CC1CCN(c2ccc(=O)n(CC(=O)Nc3cncc(F)c3)n2)CC1 [Example 65]
218%	COc1cc(C2=CCC(C)CC2)nn(CC(=O)Nc2ccn3ccnc3c2)c1=O (centres unmarked) [Example 463]
71%	CC1CC=C(c2ccc(=O)n(CC(=O)N3CCC(c4ccncc4)CC3)n2)CC1 (centres unmarked) [Example 259]
53%	CC1CC=C(c2ccc(=O)n(CC(=O)N3CCN(Cc4ccncc4)CC3)n2)CC1 (centres unmarked) [Example 392]
343%	CC1CC=C(c2ccc(=O)n(CC(=O)N3CCN(c4cccnc4)CC3)n2)CC1 (centres unmarked) [Example 395]
103%	COc1nc2cc(NC(=O)Cn3nc(N4CCC(C)CC4)ccc3=O)ccc2o1 [Example 99]
77%	CCCCN(C)c1ccc(=O)n(CC(=O)Nc2ccc(C#N)cc2)n1 [Example 30]
121%	CC1CCN(c2ccc(=O)n(CC(=O)Nc3ccc4oc(=O)[nH]c4c3)n2)CC1 [Example 82]
172%	CC1(C)CC=C(c2ccc(=O)n(CC(=O)Nc3ccn4nccc4c3)n2)CC1 [Example 427]
65%	CC1CCN(c2ccc(=O)n(CC(=O)Nc3ccc4c(c3)CCNC4=O)n2)CC1 [Example 93]
219%	COc1cc(C2=CCC(C(F)(F)F)CC2)nn(CC(=O)N2CCN(c3cncc(F)c3)CC2)c1=O (centres unmarked) [Example 482]
235%	COc1cc(C2=CCC(C(F)(F)F)CC2)nn(CC(=O)N2CCc3c(N4CCOCC4)cccc32)c1=O (centres unmarked) [Example 474]
105%	Cc1cc(NC(=O)Cn2nc(N3CCC(C)CC3)ccc2=O)cc2ncoc12 [Example 96]
50%	CC1CC=C(c2ccc(=O)n(CC(=O)N3CCC(Oc4ccccc4)CC3)n2)CC1 (centres unmarked) [Example 390]
31%	CN(c1cnc2cnn(CC(=O)Nc3cccnc3)c2n1)C1CC1 [Example 726]
342%	CC1CC=C(c2ccc(=O)n(CC(=O)N3CCN(c4cncc(F)c4)CC3)n2)CC1 (centres unmarked) [Example 263]
315%	Cc1noc2cc(NC(=O)Cn3nc(N4CCC(C)CC4)ccc3=O)ccc12 [Example 84]
522%	COc1cc(=O)n(CC(=O)N2CCc3c(N4CCOCC4)cccc32)nc1C1=CCC(C)(C)CC1 [Example 470]
260%	CC1CC=C(c2ccc(=O)n(CC(=O)Nc3cc(F)c4ocnc4c3)n2)CC1 (centres unmarked) [Example 241]
42%	Cc1nc2ccc(NC(=O)Cn3nc(N4CCC(C)CC4)ccc3=O)cc2o1 [Example 68]
59%	C[C@H]1CC[C@@H](c2ccc(=O)n(CC(=O)Nc3ccc(C#N)cc3)n2)CC1 [Example 44]
35%	CC1CC=C(c2ccc(=O)n(CC(=O)Nc3ccnc(CO)c3)n2)CC1 (centres unmarked) [Example 370]

Compound	Nav1.1 current amplification rate (%)
CC1CCN(c2ccc(=O)n(CC(=O)Nc3ccnc(C(F)(F)F)c3)n2)CC1 [Example 52]	248%

Same assay, conditions: Concentration for evaluation 50 μM; HEK293 cell line stably expressing human Nav1.1

Nav1.1 current amplification rate (%)	Compound
60%	CN(CC(F)F)c1cnc2cnn(CC(=O)Nc3ccn4ncnc4c3)c2n1 [Example 627]
36%	CC1CC=C(c2ccc(=O)n(CC(=O)N3CCN(c4ccn(C)n4)CC3)n2)CC1 (centres unmarked) [Example 412]

Same assay, conditions: HEK293, Concentration for evaluation 1 μM; HEK293 cell line stably expressing human Nav1.1; read-out: Nav1.1 current amplification rate (%)

activation at 1 µM	Compound
135%	CN(c1cnc2cnn(CC(=O)Nc3cnc4cccnc4c3)c2n1)C1CC2(CC2)C1 [Example 752]
44%	CC(C)CN(C)c1cnc2cnn(CC(=O)Nc3ccn4ncnc4c3)c2n1 [Example 573, 2-{6-[Methyl(2-methylpropyl)amino]-1H-pyrazolo[3,4-b]pyrazin-1-yl}-N-([1,2,4]triazolo[1,5-a]pyridin-7-yl) acetamide]
245%	CN(c1cnc2cnn(CC(=O)Nc3cnc4cccnc4c3)c2n1)C1CC(C)(C)C1 [Example 755]

Same assay, conditions: HEK293, Concentration for evaluation 10 μM; HEK293 cell line stably expressing human Nav1.1; read-out: Nav1.1 current amplification rate (%)

activation at 10 µM	Compound
63%	CC1CC2(C1)CN(c1cnc3cnn(CC(=O)Nc4ccc(C#N)nc4)c3n1)C2 [Example 749]
121%	CN(c1cnc2cnn(CC(=O)N3Cc4ccc(Br)cc4C3)c2n1)C1CC2(CC2)C1 [Example 751]

Same assay, conditions: HEK293, concentration for evaluation 1 μM; HEK293 stably expressing human Nav1.1; read-out: Nav1.1 current amplification rate (%)

activation at 1 µM	Compound
19%	Cc1cc(NC(=O)Cn2ncc3cnc(N(C)C4CC4)nc32)cc2ncnn12 [Example 836]

Same assay, conditions: concentration for evaluation 1 μM; HEK293 stably expressing human Nav1.1

Nav1.1 current amplification rate (%)	Compound
78%	CC(C)CN(C)c1ccc2cnn(CC(=O)Nc3ccn4ncnc4c3)c2n1 [Example 861]
21%	CN(c1ncc2cnn(CC(=O)Nc3ccc4ncnn4c3)c2n1)C1CCC1 [Example 817]
50%	CC1(C)CCN(c2ccc3cnn(CC(=O)Nc4ccn5ncnc5c4)c3n2)CC1 [Example 856]
122%	CN(c1ncc2cnn(CC(=O)Nc3ccn4ncnc4c3)c2n1)C1CCCC1(F)F (centres unmarked) [Example 801]
120%	CC1CCN(c2ccc3cnn(CC(=O)Nc4ccn5ccnc5c4)c3n2)CC1 [Example 870]
373%	CC1CC=C(c2ncc3cnn(CC(=O)Nc4ccc5cncnc5c4)c3n2)CC1 (centres unmarked) [Example 805]
29%	N#Cc1ncc(NC(=O)Cn2ncc3cnc(N4CCC5(CC5)C(F)(F)C4)nc32)cn1 [Example 827]

Same assay, conditions: concentration for evaluation 50 μM; HEK293 stably expressing human Nav1.1

Nav1.1 current amplification rate (%)	Compound
195%	CN(c1ncc2cnn(CC(=O)Nc3ccc4ncnn4c3)c2n1)C1CC1 [Example 818]
42%	CC1CCN(c2ccc3cnn(CC(=O)Nc4ccc5nccn5n4)c3n2)CC1 [Example 880]
